From publication PMC4597882 (Investigational new drugs, 2009) come the findings set out here.

In general, IC50 refers to the concentration needed to halve the response being measured.

In the test the target is human TopoII (TopoIIα) (Homo sapiens, UniProt P11388). The test can be described thus: kinetoplast DNA decatenation assay. Type of test: biochemical.

Structures are written as SMILES.

human TopoII (TopoIIα), sequence (P11388 whole entry): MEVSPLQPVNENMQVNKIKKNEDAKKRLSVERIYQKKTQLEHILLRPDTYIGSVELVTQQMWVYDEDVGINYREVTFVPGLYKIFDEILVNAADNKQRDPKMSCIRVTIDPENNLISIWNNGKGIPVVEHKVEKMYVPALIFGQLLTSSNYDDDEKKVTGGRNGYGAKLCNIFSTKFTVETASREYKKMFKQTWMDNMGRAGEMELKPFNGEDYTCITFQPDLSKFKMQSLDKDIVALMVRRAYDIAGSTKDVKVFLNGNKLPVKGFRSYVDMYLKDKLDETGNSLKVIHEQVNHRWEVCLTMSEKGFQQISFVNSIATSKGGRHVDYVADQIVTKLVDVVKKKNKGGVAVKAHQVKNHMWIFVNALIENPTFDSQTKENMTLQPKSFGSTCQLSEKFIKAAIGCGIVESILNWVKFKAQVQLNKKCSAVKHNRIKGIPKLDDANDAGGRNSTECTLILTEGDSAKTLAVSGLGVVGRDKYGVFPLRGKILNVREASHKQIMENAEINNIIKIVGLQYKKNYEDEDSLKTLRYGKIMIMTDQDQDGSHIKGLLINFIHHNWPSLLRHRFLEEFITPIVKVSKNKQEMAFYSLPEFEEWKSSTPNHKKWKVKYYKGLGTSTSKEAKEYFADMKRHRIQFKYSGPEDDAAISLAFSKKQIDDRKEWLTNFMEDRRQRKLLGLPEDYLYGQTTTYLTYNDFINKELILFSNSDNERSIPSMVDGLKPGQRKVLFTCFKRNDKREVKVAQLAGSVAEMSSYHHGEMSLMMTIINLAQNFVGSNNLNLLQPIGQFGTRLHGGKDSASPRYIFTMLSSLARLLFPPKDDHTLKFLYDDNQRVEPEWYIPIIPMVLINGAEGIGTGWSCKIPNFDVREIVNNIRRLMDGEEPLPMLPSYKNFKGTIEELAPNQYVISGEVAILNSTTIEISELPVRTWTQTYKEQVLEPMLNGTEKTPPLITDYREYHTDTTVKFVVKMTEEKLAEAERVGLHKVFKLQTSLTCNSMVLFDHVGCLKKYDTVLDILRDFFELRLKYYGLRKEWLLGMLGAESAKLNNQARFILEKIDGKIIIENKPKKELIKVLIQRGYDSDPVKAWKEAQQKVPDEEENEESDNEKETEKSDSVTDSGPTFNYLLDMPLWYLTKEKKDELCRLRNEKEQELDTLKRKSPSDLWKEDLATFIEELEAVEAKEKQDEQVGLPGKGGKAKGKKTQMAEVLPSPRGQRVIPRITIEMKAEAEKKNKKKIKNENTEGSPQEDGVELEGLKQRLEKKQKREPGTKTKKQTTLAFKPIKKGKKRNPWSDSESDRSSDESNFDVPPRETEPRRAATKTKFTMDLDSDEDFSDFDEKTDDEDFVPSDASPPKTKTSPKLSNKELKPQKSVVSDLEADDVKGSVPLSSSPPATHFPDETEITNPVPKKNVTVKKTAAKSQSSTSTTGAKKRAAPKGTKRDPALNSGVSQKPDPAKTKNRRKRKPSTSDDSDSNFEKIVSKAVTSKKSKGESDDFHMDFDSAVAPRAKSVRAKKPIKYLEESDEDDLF

The compound `CC(=O)O[C@@H]1[C@@H](C)O[C@@H](c2ccc3c(c2O)[C@@H](O)[C@]24O[C@@]2(C3=O)[C@@]2(O)C(=O)C=C(C)C[C@@]2(O)C[C@@H]4O)C[C@H]1OC(=O)/C=C/C=C/C=C/C=C/C(=O)Nc1c(O)c2ccc(O)c(Cl)c2oc1=O` [SD8, Simocyclinone D8] yielded an IC50 of roughly 80 µM.
